Paper PMC4183140 (Journal of medicinal chemistry, 2009)

Test system: 1A9 ovarian cancer cells
Assay: Anti-proliferative activity in 1A9 ovarian cancer cells
Type: cell-based
Settings: for Antiproliferative activity (in words): antiproliferative assays, highest concentration tested 50 μM

Compound	Fold more active than epi-tubulysin V in the antiproliferative assays (antiproliferative assays (1A9 and MCF-7), relative to epi-tubulysin V)	Antiproliferative activity (in words)
CC[C@H](C)[C@H](NC(=O)[C@H]1CCCCN1C)C(=O)N[C@H](C[C@@H](O)c1nc(C(=O)N[C@@H](Cc2ccccc2)C[C@H](C)C(=O)O)cs1)C(C)C [Compound 4, tubulysin V]	30–45 fold	
CC[C@H](C)[C@H](NC(=O)[C@@H](C)N(C)C)C(=O)N[C@H](CC(=O)c1nc(C(=O)N[C@@H](Cc2ccccc2)C[C@H](C)C(=O)O)cs1)C(C)C [Compound 21]		not active
CC[C@H](C)[C@H](NC(=O)[C@@H](C)N(C)C)C(=O)N[C@H](CC(=O)c1nc(C(=O)N[C@H](CCC(=O)O)Cc2ccccc2)cs1)C(C)C [Compound 22]		sub-micromolar activity
